From US8101375B2, “Compositions and methods for detecting phosphomonoester” (Illumina, Inc., priority 2005, dated 2012)

Key:
PKA kinase = PKA kinase (Homo sapiens, UniProt P17612); assay: Multiplex kinase profiling assay, 194-target pool, chemical labeling, PKA kinase; format: biochemical; settings: selectivity check
Description: (§1) A kinase profiling assay was carried out in four major steps, including the phosphorylation of protein target in a kinase enzyme reaction, labeling of phosphorylated target, hybridization of labeled target to the array, and detection of hybridized target on the array.
(§2) In the first step, phosphorylation was carried out in duplex format such that a mixture of two DNA-protein conjugate targets, one having an amino acid recognition sequence for p60c-src kinase and the other for PKA kinase, were co-incubated with p60c-src kinase and PKA kinase. The reaction was performed in 15 ul of 50 mM HEPES, containing 0.1 mM EDTA, 0.015% Brig 35, 0.15 mM ATP, 30 mM MgCl2, 0.1% 2-mercaptoethanol, pH 7.5.
(§3) Upon completion of the enzymatic reaction; the second step was carried out to detect phosphorylation using chemical labeling or antibody-based labeling. In the chemical labeling method, a solution of 5-(aminoacetamido)fluorescein (NH2-FAM, Molecular Probes, Oreg.) and EDC in MES buffer, pH 6.0, was added to the reaction mixture to a final concentration of 150 mM EDC and 200 μM of NH2-FAM. Where pre-treatment was used to block (i.e. protect) […] moieties, the pH of the reaction mixture was first adjusted to pH 4.5 and then pre-treated with 100 mM of EDC for 1.5 hours at 25° C. After the pre-treatment, the NH2-FAM and EDC were added and the reaction was allowed to proceed overnight. […]

p60c-src kinase = p60c-src kinase (Homo sapiens, UniProt P12931); assay: Multiplex kinase profiling assay, 194-target pool, chemical labeling, p60c-src kinase; format: biochemical; settings: chemical labeling with low pH EDC pre-treatment
Description: as §1, §2, §3

p60c-src kinase, sequence (P12931 whole entry): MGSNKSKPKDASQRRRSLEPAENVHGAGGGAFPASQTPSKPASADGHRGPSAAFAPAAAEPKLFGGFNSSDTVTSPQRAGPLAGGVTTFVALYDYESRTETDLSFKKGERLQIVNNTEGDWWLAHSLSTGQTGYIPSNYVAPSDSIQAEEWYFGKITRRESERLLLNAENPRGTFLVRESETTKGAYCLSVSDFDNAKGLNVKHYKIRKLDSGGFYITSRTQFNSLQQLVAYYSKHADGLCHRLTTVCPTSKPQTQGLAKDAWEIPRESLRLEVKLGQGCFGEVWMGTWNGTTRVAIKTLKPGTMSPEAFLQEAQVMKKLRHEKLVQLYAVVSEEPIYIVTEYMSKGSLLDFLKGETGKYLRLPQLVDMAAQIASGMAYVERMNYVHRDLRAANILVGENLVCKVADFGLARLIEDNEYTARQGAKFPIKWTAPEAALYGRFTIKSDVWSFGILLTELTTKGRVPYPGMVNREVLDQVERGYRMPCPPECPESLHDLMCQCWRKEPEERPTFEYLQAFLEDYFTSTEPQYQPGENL

effect on PKA kinase (PKA kinase): no detectable effect
inhibition of p60c-src kinase (p60c-src kinase): 85%
Structure (SMILES): COc1cc2ncnc(Nc3ccc(Oc4ccccc4)cc3)c2cc1OC [Src Kinase Inhibitor I]
